Values of other authors in patent US20130243825A1, “COMPOSITIONS AND METHODS FOR THE TREATMENT OF SKIN DISEASES” (priority 2012, published 2013).
Entries after “also recorded” stand apart in the source; their conditions may differ.

Tested on: vasoconstriction
Conditions: seven potency groups, I ultra high to VII least potent; Ference and Last 2009

Compound	potency group by strength in standard vasoconstriction assay
CC(=O)OCC(=O)[C@@]12OC(C)(C)O[C@@H]1C[C@H]1[C@@H]3C[C@H](F)C4=CC(=O)C=C[C@]4(C)[C@@]3(F)[C@@H](O)C[C@@]12C [Fluocinonide 0.05%, Fluocinonide]	High (II)
CCCC(=O)O[C@]1(C(=O)COC(=O)CC)CC[C@H]2[C@@H]3CCC4=CC(=O)CC[C@]4(C)[C@H]3[C@@H](O)C[C@@]21C [Hydrocortisone probutate 0.1%, Hydrocortisone probutate]	Medium (IV and V)
CCC(=O)O[C@]1(C(=O)SCF)[C@H](C)C[C@H]2[C@@H]3C[C@H](F)C4=CC(=O)C=C[C@]4(C)[C@@]3(F)[C@@H](O)C[C@@]21C [Fluticasone propionate 0.05%, Fluticasone propionate]	Medium (IV and V)
CCC(=O)O[C@]1(C(=O)CCl)[C@@H](C)C[C@H]2[C@@H]3CCC4=CC(=O)C=C[C@]4(C)[C@@]3(F)[C@@H](O)C[C@@]21C [Clobetasol propionate 0.05%, Clobetasol propionate]	Ultra high (I)
CC(=O)OCC(=O)[C@@]12OC(C)(C)O[C@@H]1C[C@H]1[C@@H]3C[C@H](F)C4=CC(=O)C=C[C@]4(C)[C@@]3(F)[C@@H](O)C[C@@]12C [Fluocinonide 0.1%, Fluocinonide]	Ultra high (I)
C[C@@H]1C[C@H]2[C@@H]3CCC4=CC(=O)C=C[C@]4(C)[C@@]3(Cl)[C@@H](O)C[C@]2(C)[C@@]1(OC(=O)c1ccco1)C(=O)CCl [Mometasone furoate 0.1%, Mometasone furoate]	Medium (IV and V)
Augmented betamethasone dipropionate	Ultra high (I); also recorded: High (II)
C[C@]12CCC(=O)C=C1CC[C@@H]1[C@@H]2[C@@H](O)C[C@@]2(C)[C@H]1CC[C@]2(O)C(=O)CO [Hydrocortisone 1%, 2.5%, Hydrocortisone]	Least potent (VII)
CCC(=O)OCC(=O)[C@@]1(OC(=O)CC)[C@H](C)C[C@H]2[C@H]3[C@H]([C@@H](O)C[C@@]21C)[C@@]1(C)C=CC(=O)C=C1C[C@H]3Cl [Alclometasone dipropionate 0.05%, Alclometasone dipropionate]	Low (VI)
C[C@@H]1C[C@H]2[C@@H]3CCC4=CC(=O)C=C[C@]4(C)[C@@]3(F)[C@@H](O)C[C@]2(C)[C@H]1C(=O)CO [Desoximetasone 0.25%, Desoximetasone]	High (II)
CC1(C)O[C@@H]2C[C@H]3[C@@H]4CCC5=CC(=O)C=C[C@]5(C)[C@H]4[C@@H](O)C[C@]3(C)[C@]2(C(=O)CO)O1 [Desonide 0.05%, Desonide]	Low (VI)
C[C@@H]1C[C@H]2[C@@H]3CCC4=CC(=O)C=C[C@]4(C)[C@@]3(F)[C@@H](O)C[C@]2(C)[C@H]1C(=O)CO [Desoximetasone 0.05%, Desoximetasone]	Medium (IV and V)
CCCCC(=O)O[C@]1(C(=O)CO)[C@@H](C)C[C@H]2[C@@H]3CCC4=CC(=O)C=C[C@]4(C)[C@@]3(F)[C@@H](O)C[C@@]21C [Betamethasone valerate 0.1%, Betamethasone valerate]	Medium (IV and V)
CC1(C)O[C@@H]2C[C@H]3[C@@H]4C[C@H](F)C5=CC(=O)C=C[C@]5(C)[C@@]4(F)[C@@H](O)C[C@]3(C)[C@]2(C(=O)CO)O1 [Fluocinolone acetonide 0.025%, Fluocinolone acetonide]	Medium (IV and V)
CCCCC(=O)O[C@]1(C(=O)CO)CC[C@H]2[C@@H]3CCC4=CC(=O)CC[C@]4(C)[C@H]3[C@@H](O)C[C@@]21C [Hydrocortisone valerate 0.2%, Hydrocortisone valerate]	Medium (IV and V)
CC1(C)O[C@@H]2C[C@H]3[C@@H]4CCC5=CC(=O)CC[C@]5(C)[C@@]4(F)[C@@H](O)C[C@]3(C)[C@]2(C(=O)CCl)O1 [Halcinonide 0.1%, Halcinonide]	High (II)
CCC(=O)O[C@]1(C(=O)SCF)[C@H](C)C[C@H]2[C@@H]3C[C@H](F)C4=CC(=O)C=C[C@]4(C)[C@@]3(F)[C@@H](O)C[C@@]21C [Fluticasone propionate 0.005%, Fluticasone propionate]	Medium to high (III)
CCCC(=O)O[C@]1(C(=O)CO)CC[C@H]2[C@@H]3CCC4=CC(=O)CC[C@]4(C)[C@H]3[C@@H](O)C[C@@]21C [Hydrocortisone butyrate 0.1%, Hydrocortisone butyrate]	Medium (IV and V); also recorded: Low (VI)

Tested on: standardized wounds created by sequential tape stripping
Conditions: applied to a wound for 15 seconds, 24 subjects; Pagnoni et al. 2004

stinging/burning sensation	Compound
stung	CC(C)O [70% isopropyl alcohol, isopropyl alcohol]
